Measurements from publication PMC4207450, “Aurones: A Promising Heterocyclic Scaffold for the Development of Potent Antileishmanial Agents” (International Journal of Medicinal Chemistry, 2012).
Like-named read-outs stand apart in the source and are kept apart here.

Experiments:
[1] = test system: L. infantum intracellular amastigotes; assay: Growth inhibition of luciferase-expressing L. infantum intracellular amastigotes in THP1-differentiated macrophages; assay type: cell-based, Leishmania infantum; details: for IC50: Leishmania infantum, Macrophage, 72 h incubation, luciferase activity, infected THP1-differentiated macrophages
Protocol: A cloned line of L. infantum (MOM/MA671 TMAP263) promastigotes, stably expressing the luciferase gene (LUC), was grown in RPMI 1640 medium (Bio Whitaker, Belgium) supplemented with 10% heat-inactivated fetal bovine serum (FBS) (Bio Whitaker, Belgium), 2 mML-glutamine (Bio Whitaker, Belgium), 20 mM Hepes (Bio Whitaker, Belgium), 100 U/mL penicillin, and 100 μg/mL streptomycin (Bio Whitaker, Belgium). Selection of LUC positive parasites was done by adding geneticin-sulphate (Sigma-Aldrich, USA) to the culture media at a final concentration of 5 μg/mL. Parasites were maintained in culture, at 26°C by subpassage ([…]) at every 5 days.
L. infantum axenic amastigotes, stably expressing the LUC gene were derived from promastigotes by culturing them in MAA (Medium for Axenic Amastigotes) culture medium. MAA consisted of a modified medium 199 with Hanks balanced salt solution (Gibco-Invitrogen, Spain) supplemented with 0.5% soya broth trypto-casein (Bio-Rad, UK), 15 mM D-glucose (Panreac, Spain), 4 mM NaHCO3 (Sigma-Aldrich, USA). The pH was adjusted to 5.8, and the media was 0.2 μm sterilized by filtration and further supplemented with 0.023 mM bovine hemin (Fluka, USA), 5 mM L-glutamine, and 25% of heat inactivated FBS. Amastigotes were maintained in culture, at 37°C in an atmosphere containing 5% CO2 by subpassage (10^5 parasites/mL), at every 5 days.
THP1-differentiated macrophages were infected for a period of 4 h with stationary phase LUC expressing, L. infantum axenic amastigotes, at a 5 : 1 parasite to cell ratio. After the infection period, cells were washed with culture media to remove noninternalized parasites. Serial dilutions of the aurones, ranging from 50 to 0.78 μM in culture media, were added to the wells, in quadruplicate, and incubated for 72 h at 37°C, 5% CO2. After the incubation period, the luciferase activity of intracellular amastigotes was determined as described before. The percentage of growth inhibition was calculated as described above.

[2] = test system: THP1-differentiated macrophages; assay: Toxicity of aurones on THP1-differentiated macrophages (MTT assay); assay type: cell-based, human; details: for IC50: Homo sapiens, Macrophage, 72 h incubation, MTT assay, cytotoxicity; for toxicity to mammalian (THP1) cells, in words: THP1-differentiated macrophages
Protocol: The human leukaemia monocyte THP1 cell line was cultured as a monolayer at 37°C in a humidified atmosphere containing 5% CO2. Cells were grown in RPMI 1640 medium, supplemented with 10% heat-inactivated FBS, 2 mM L-glutamine, 100 U/mL penicillin, and 100 μg/mL streptomycin, and were maintained in culture, by subpassage every 3 days.
For macrophage differentiation, human leukaemia monocyte cell line (THP-1 cells) cells were incubated in the presence of 20 ng/ml phorbol 12-myristate 13-acetate (PMA, Sigma-Aldrich) for 18 h at 37°C, 5% CO2, and left another 24 h with fresh medium containing no PMA to induce maturation. Serial dilutions of each aurone, ranging from 100 to 1.56 μM in culture media, were added to the wells, in quadruplicate, and incubated for 72 h at 37°C, 5% CO2. Cell viability was assessed by the MTT assay, as described before.
The IC50 value, that is, the concentration of the aurone necessary to decrease cell viability to 50% of the untreated control, was determined by linear regression analysis.

[3] = ratio of IC50 on THP1-differentiated macrophages to IC50 on intracellular parasite

Structure (SMILES) | Selectivity index (SI) [1] | IC50 [1] | IC50 [2] | Selectivity index (SI) [1, 3] | toxicity to mammalian (THP1) cells, in words [2] | melting point
C[C@@H]1[C@H](O)[C@@H](C)/C=C/C=C/C=C/C=C/C=C/C=C/C=C/[C@H](O[C@@H]2O[C@H](C)[C@@H](O)[C@H](N)[C@@H]2O)C[C@@H]2O[C@](O)(C[C@@H](O)C[C@@H](O)[C@H](O)CC[C@@H](O)C[C@@H](O)CC(=O)O[C@H]1C)C[C@H](O)[C@H]2C(=O)O [Amphotericin B, reference compound] | 20.6 | 1.2 ± 0.1 µM | 23.8 ± 2.3 µM | – | – | –
COc1ccc(/C=C2\Oc3ccccc3C2=O)cc1 [Compound 4a] | – | – | 16.5 ± 3.1 µM | – | – | –
Cc1ccc(/C=C2\Oc3ccccc3C2=O)cc1 [Compound 4b] | – | – | 8.5 ± 0.8 µM | – | – | –
O=C1/C(=C/c2ccc(Cl)cc2)Oc2ccccc21 [Compound 4c] | – | – | 14.5 ± 2.1 µM | – | – | –
COc1ccccc1/C=C1\Oc2ccccc2C1=O [Compound 4d] | – | – | 17.5 ± 3.1 µM | – | – | –
COc1cccc(/C=C2\Oc3ccccc3C2=O)c1 [Compound 4e] | – | 4.7 ± 0.5 µM | 54.2 ± 7.3 µM | 11.5 | did not show significant toxicity | –
COc1ccc(/C=C2\Oc3ccccc3C2=O)cc1OC [Compound 4f] | – | – | 20.5 ± 1.2 µM | – | – | –
COc1ccc(/C=C2\Oc3cc(OC)cc(OC)c3C2=O)cc1 [Compound 4h] | – | – | 19.6 ± 2.5 µM | – | – | –
COc1cc(OC)c2c(c1)O/C(=C\c1ccccc1OC)C2=O [Compound 4i, 2′,4,6-trimethoxyaurone] | – | 1.3 ± 0.1 µM | 75.4 ± 4.7 µM | 57.5 | – | –
COc1cc(OC)c2c(c1)O/C(=C\c1ccccc1C)C2=O [Compound 4j, 4,6-Dimethoxy-2′-methylaurone] | – | 1.6 ± 0.2 µM | 68.1 ± 2.1 µM | 43.4 | – | 180 to 183 °C
COc1cc(OC)c2c(c1)O/C(=C\c1ccccc1Cl)C2=O [Compound 4k, 4,6-Dimethoxy-2′-chloro-aurone] | – | 12.2 ± 1.4 µM | > 100 µM | >8.2 | not toxic to mammalian cells | 191 to 193 °C
COc1cc(OC)c2c(c1)O/C(=C\c1ccccc1)C2=O [Compound 4l, 4,6-Dimethoxyaurone] | – | 2.1 ± 0.9 µM | 57.5 ± 3.4 µM | 26.9 | – | 139 to 142 °C
